Where two headings read alike, the source gives them in different places.
Columns and labels:
[1] = Oral bioavailability in fasted male rats (intravenous and oral dosing); format: in vivo; settings: for bioavailability / AUC(0-inf): rat, plasma; for bioavailability: from dose-normalized AUC.infin. oral vs intravenous; for AUC(0-inf): fasted male rats (n=3), read-out: area under the curve AUC.infin.
Procedure: Fasted male rats (n=3) were given a single dose of the title compound either intravenously (10 μmol/kg as a 10 minute infusion) or orally by gavage (20 μmol/kg). The dosing vehicle was propylene glycol for the intravenous dose and PEG-400 for the oral dose. Following dosing, the average plasma concentration of the title compound was measured over time, and the area under the curve AUC.infin.

[2] = tested on: big ET-1 pressor response; assay: Pressor testing (i): inhibition of big ET-1 pressor response after intravenous dosing; format: in vivo; settings: Rattus norvegicus, 5 min, read-out: dose causing 50% inhibition of the big ET-1 pressor response (ED50), human big ET-1 1 nmol/kg i.v. before and 5 minutes after compound, conscious normotensive Sprague-Dawley rats
Procedure: (i) Intravenous injection of big ET-1 into conscious, normotensive rats produces a transient increase in mean arterial pressure which can be blunted by an ETA receptor antagonist.
A bolus injection of human big ET-1 (1 nmol/kg, intravenously; vehicle: 1% Tween 80 in 5% NaHCO3) was administered to Sprague-Dawley rats before and 5 minutes after intravenous injection of an amount of the title compound (0.01 μmol/kg (n=10), 0.03 μmol/kg (n=10), and 0.1 μmol/kg (n=3)). Peak pressor responses were compared to determine the amount of inhibition caused by the title compound.

[3] = tested on: big ET-1 pressor response; assay: Pressor testing (ii): inhibition of big ET-1 pressor response over time after oral dosing; format: in vivo, Sprague-Dawley rats; settings: 3 μmol/kg, human big ET-1 1 nmol/kg i.v., n=3
Text: Peak pressor responses were compared to determine the amount of inhibition caused by the title compound at these time intervals.

[4] = Pre-systemic metabolic stability within the gastrointestinal tract, in vivo (bile duct cannulated rats); settings: rat, po, 29 mg/kg
Procedure: Bile duct cannulated rats were fasted overnight. The title compound was administered as a solution in 5% sodium bicarbonate (ca. 8 mg/ml, 29 mg/kg) by oral gavage. Gastrointestinal tract homogenate was made in 3 volumes of water and an equal volume of acetonitrile was added.

in vitro = settings: rat, cecal contents, pH 7.4
Procedure: Rat cecal contents were quickly placed in cold, degassed potassium phosphate buffer (50 mM, pH 7.4, purged by nitrogen bubbling for at least 30 minutes). Each incubation contained ca. 0.1 g of cecal contents/ml. […] Samples were analyzed with HPLC-UV and LC-MS on a YMC-ODS AQ column (4.6×150 mm, 3μ) eluted with an ammonium acetate/acetonitrile gradient and detected at 270 nm.

Row | SMILES | bioavailability ([1]; 20 umol/kg, fasted male rats) [%] | dose-normalized AUC.infin. values, intravenous versus oral ([1]; fasted male rats, 10 μmol/kg intravenous vs 20 μmol/kg oral) | AUC(0-inf) ([1]; 10 umol/kg, intravenous, 10 μmol/kg as a 10 minute infusion, propylene glycol vehicle) [µM·h] | AUC(0-inf) ([1]; 20 umol/kg, oral gavage, 20 μmol/kg, PEG-400 vehicle) [µM·h] | ED50 [2] [µmol/kg] | % Inhibition (big ET-1 pressor response) ([3]; 15 minutes after dosing) [%] | % Inhibition (big ET-1 pressor response) ([3]; 105 minutes after dosing) [%] | % Inhibition (big ET-1 pressor response) ([3]; 195 minutes after dosing) [%] | metabolites in the gastrointestinal tract [4] | remaining at 9 h [4] [%] | remaining at 1 h, 200 µM (in vitro) [%]
1 | Cc1onc(NS(=O)(=O)c2ccccc2-c2ccc(-c3ncco3)cc2CN2CCC(C)(C)C2=O)c1C [N-(4,5-dimethyl-3-isoxazolyl)-2'-[(3,3-dimethyl-2-oxo-1-pyrrolidinyl)methyl]-4'-(2-oxazolyl)[1,1'-biphenyl]-2-sulfonamide] | ~78 | – | – | – | – | – | – | – | – | – | –
2 | Cc1onc(NS(=O)(=O)c2ccccc2-c2ccc(-c3ncco3)cc2CN(C)C(=O)CC(C)(C)C)c1C [N-[[2'-[[(4,5-dimethyl-3-isoxazolyl)amino]sulfonyl]-4-(2-oxazolyl)[1,1'-biphenyl]-2-yl]methyl]-N,3,3-trimethylbutanamide] | ~100 | not statistically different | 31.3 ± 2.9 | 72.8 ± 17.3 | 0.03 | 57 ± 7 | 65 ± 13 | 74 ± 8 | metabolites were not observed | 100 | 100

Source: patent publication US6043265A, “Isoxazolyl endothelin antagonists” (Bristol-Myers Squibb Co., priority 1998, dated 2000)
